± gives the expanded uncertainty stated by the source.
Conditions: Crystal; DTA

| Normal melting temperature [°C] | Compound |
| --- | --- |
| 645 ± 1 | [Cl-].[Cs+] [cesium chloride] |
| 844 ± 1 | [F-].[Li+] [lithium fluoride] |

Reference: the NIST ThermoML archive (doi:10.1016/j.jct.2019.07.003)
